Three molecules from article PMC5461267, “Membrane Guanylate Cyclase catalytic Subdomain: Structure and Linkage with Calcium Sensors and Bicarbonate” (Frontiers in Molecular Neuroscience, 2017) can be followed below.

For orientation: Km means the substrate concentration at which the rate is half of its maximum.

The target in data set [1] is T1, CCD/CTE (aa 817-1054) of ROS-GC1 (Bos taurus, UniProt P55203, A1013R).
T1 construct: gene GUCY2D; dimer
The data set can be described thus: cyclic GMP radioimmunoassay, purified protein. The data set is classed as biochemical. To be noted: 1 mM GTP, 4 mM MgCl2, pH 7.5, 37 °C.

In data set [2] the target is T2, ROS-GC1 (rod outer segment guanylate cyclase type 1), full-length recombinant (Bos taurus, UniProt P55203).
T2 construct: gene GUCY2D; full-length wild-type cDNA expressed in COS-7 cells; membrane fraction assayed; homodimer
T2 sequence (P55203 57-1110): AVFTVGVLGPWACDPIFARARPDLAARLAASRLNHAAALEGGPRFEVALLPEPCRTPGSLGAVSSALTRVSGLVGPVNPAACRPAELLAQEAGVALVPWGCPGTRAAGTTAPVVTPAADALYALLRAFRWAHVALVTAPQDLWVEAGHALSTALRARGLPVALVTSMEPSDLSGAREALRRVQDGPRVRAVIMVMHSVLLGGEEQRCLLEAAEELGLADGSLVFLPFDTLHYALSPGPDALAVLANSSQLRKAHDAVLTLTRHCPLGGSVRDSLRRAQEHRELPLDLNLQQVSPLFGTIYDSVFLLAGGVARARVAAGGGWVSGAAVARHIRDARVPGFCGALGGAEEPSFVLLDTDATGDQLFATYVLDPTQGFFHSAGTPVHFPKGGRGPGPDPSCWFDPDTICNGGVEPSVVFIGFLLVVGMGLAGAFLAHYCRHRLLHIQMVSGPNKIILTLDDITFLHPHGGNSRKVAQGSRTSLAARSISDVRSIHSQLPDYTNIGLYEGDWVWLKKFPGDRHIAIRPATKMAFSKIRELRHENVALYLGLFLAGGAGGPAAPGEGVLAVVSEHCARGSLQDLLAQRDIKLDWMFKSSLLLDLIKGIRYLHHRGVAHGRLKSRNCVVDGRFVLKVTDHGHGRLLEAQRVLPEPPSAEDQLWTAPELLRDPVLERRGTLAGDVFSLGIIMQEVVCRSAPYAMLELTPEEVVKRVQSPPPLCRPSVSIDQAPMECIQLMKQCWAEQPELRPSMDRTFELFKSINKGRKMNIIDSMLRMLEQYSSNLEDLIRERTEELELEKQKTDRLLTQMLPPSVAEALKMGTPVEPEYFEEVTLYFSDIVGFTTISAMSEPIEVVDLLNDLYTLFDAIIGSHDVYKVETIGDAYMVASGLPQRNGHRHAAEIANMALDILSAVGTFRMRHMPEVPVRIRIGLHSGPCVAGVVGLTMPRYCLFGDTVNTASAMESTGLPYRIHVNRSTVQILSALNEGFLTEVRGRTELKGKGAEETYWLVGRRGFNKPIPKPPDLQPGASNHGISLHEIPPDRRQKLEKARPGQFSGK
Briefly: cyclic GMP radioimmunoassay, COS cell membranes; Hill fit. The data set is classed as biochemical. To be noted: constant Mg2+, GTP 0-3 mM, pH 7.5, 37 °C; half-maximal concentration from Hill equation.

Data set [3] has as its target T3, CCD (aa fragment 817-965) of ROS-GC1 (Bos taurus, UniProt P55203, A1013R).
T3 construct: gene GUCY2D; homodimer
The data set can be described thus: cyclic GMP radioimmunoassay, purified protein. To be noted: 1 mM GTP, 4 mM MgCl2, pH 7.5, 37 °C. The data set is classed as biochemical.

Substrate in data set [4]: Nc1nc2c(ncn2[C@@H]2O[C@H](COP(=O)(O)OP(=O)(O)OP(=O)(O)O)[C@@H](O)[C@H]2O)c(=O)[nH]1
Briefly: cyclic GMP radioimmunoassay, COS cell membranes; Hill fit. The format is biochemical, Bos taurus. To be noted: constant Mg2+, GTP 0-3 mM, pH 7.5, 37 °C, half-maximal concentration from Hill equation.

T3 sequence (P55203 873-1021 A1013R): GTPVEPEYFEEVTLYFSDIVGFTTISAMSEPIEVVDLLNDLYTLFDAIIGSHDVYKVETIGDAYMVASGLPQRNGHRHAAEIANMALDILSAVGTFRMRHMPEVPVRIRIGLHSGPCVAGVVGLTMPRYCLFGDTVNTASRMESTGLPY
T1 sequence (P55203 873-1110 A1013R): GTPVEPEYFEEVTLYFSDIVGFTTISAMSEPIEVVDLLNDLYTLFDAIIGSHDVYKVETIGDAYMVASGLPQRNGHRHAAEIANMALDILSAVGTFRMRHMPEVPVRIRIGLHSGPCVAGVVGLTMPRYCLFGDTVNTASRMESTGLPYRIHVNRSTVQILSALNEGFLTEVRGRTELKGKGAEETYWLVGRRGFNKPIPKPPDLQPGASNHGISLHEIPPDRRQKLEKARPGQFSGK

In the case of `Nc1nc2c(ncn2[C@@H]2O[C@H](COP(=O)(O)OP(=O)(O)OP(=O)(O)O)[C@@H](O)[C@H]2O)c(=O)[nH]1` [GTP], the “cyclic GMP radioimmunoassay, purified protein” value in data set [1] was “constructs lacked the TMD, illustrated by the CCD–CTE and CCD”; in data set [3], “The isolated soluble CCD construct contained only a minimal basal specific catalytic activity”. The Km in data set [2] came out at 500 ± 30 µM.

B1: ROS-GC1 (rod outer segment guanylate cyclase type 1), full-length recombinant (Bos taurus; A1013R/C1002A) (protein)
chain: AVFTVGVLGPWACDPIFARARPDLAARLAASRLNHAAALEGGPRFEVALLPEPCRTPGSLGAVSSALTRVSGLVGPVNPAACRPAELLAQEAGVALVPWGCPGTRAAGTTAPVVTPAADALYALLRAFRWAHVALVTAPQDLWVEAGHALSTALRARGLPVALVTSMEPSDLSGAREALRRVQDGPRVRAVIMVMHSVLLGGEEQRCLLEAAEELGLADGSLVFLPFDTLHYALSPGPDALAVLANSSQLRKAHDAVLTLTRHCPLGGSVRDSLRRAQEHRELPLDLNLQQVSPLFGTIYDSVFLLAGGVARARVAAGGGWVSGAAVARHIRDARVPGFCGALGGAEEPSFVLLDTDATGDQLFATYVLDPTQGFFHSAGTPVHFPKGGRGPGPDPSCWFDPDTICNGGVEPSVVFIGFLLVVGMGLAGAFLAHYCRHRLLHIQMVSGPNKIILTLDDITFLHPHGGNSRKVAQGSRTSLAARSISDVRSIHSQLPDYTNIGLYEGDWVWLKKFPGDRHIAIRPATKMAFSKIRELRHENVALYLGLFLAGGAGGPAAPGEGVLAVVSEHCARGSLQDLLAQRDIKLDWMFKSSLLLDLIKGIRYLHHRGVAHGRLKSRNCVVDGRFVLKVTDHGHGRLLEAQRVLPEPPSAEDQLWTAPELLRDPVLERRGTLAGDVFSLGIIMQEVVCRSAPYAMLELTPEEVVKRVQSPPPLCRPSVSIDQAPMECIQLMKQCWAEQPELRPSMDRTFELFKSINKGRKMNIIDSMLRMLEQYSSNLEDLIRERTEELELEKQKTDRLLTQMLPPSVAEALKMGTPVEPEYFEEVTLYFSDIVGFTTISAMSEPIEVVDLLNDLYTLFDAIIGSHDVYKVETIGDAYMVASGLPQRNGHRHAAEIANMALDILSAVGTFRMRHMPEVPVRIRIGLHSGPCVAGVVGLTMPRYALFGDTVNTASRMESTGLPYRIHVNRSTVQILSALNEGFLTEVRGRTELKGKGAEETYWLVGRRGFNKPIPKPPDLQPGASNHGISLHEIPPDRRQKLEKARPGQFSGK
notes: full-length wild-type cDNA expressed in COS-7 cells; membrane fraction assayed; homodimer
As to B1, the Km in data set [4] is 640 ± 20 µM.

B2: ROS-GC1 (rod outer segment guanylate cyclase type 1), full-length recombinant (Bos taurus; A1013R/N1009A) (protein)
chain: AVFTVGVLGPWACDPIFARARPDLAARLAASRLNHAAALEGGPRFEVALLPEPCRTPGSLGAVSSALTRVSGLVGPVNPAACRPAELLAQEAGVALVPWGCPGTRAAGTTAPVVTPAADALYALLRAFRWAHVALVTAPQDLWVEAGHALSTALRARGLPVALVTSMEPSDLSGAREALRRVQDGPRVRAVIMVMHSVLLGGEEQRCLLEAAEELGLADGSLVFLPFDTLHYALSPGPDALAVLANSSQLRKAHDAVLTLTRHCPLGGSVRDSLRRAQEHRELPLDLNLQQVSPLFGTIYDSVFLLAGGVARARVAAGGGWVSGAAVARHIRDARVPGFCGALGGAEEPSFVLLDTDATGDQLFATYVLDPTQGFFHSAGTPVHFPKGGRGPGPDPSCWFDPDTICNGGVEPSVVFIGFLLVVGMGLAGAFLAHYCRHRLLHIQMVSGPNKIILTLDDITFLHPHGGNSRKVAQGSRTSLAARSISDVRSIHSQLPDYTNIGLYEGDWVWLKKFPGDRHIAIRPATKMAFSKIRELRHENVALYLGLFLAGGAGGPAAPGEGVLAVVSEHCARGSLQDLLAQRDIKLDWMFKSSLLLDLIKGIRYLHHRGVAHGRLKSRNCVVDGRFVLKVTDHGHGRLLEAQRVLPEPPSAEDQLWTAPELLRDPVLERRGTLAGDVFSLGIIMQEVVCRSAPYAMLELTPEEVVKRVQSPPPLCRPSVSIDQAPMECIQLMKQCWAEQPELRPSMDRTFELFKSINKGRKMNIIDSMLRMLEQYSSNLEDLIRERTEELELEKQKTDRLLTQMLPPSVAEALKMGTPVEPEYFEEVTLYFSDIVGFTTISAMSEPIEVVDLLNDLYTLFDAIIGSHDVYKVETIGDAYMVASGLPQRNGHRHAAEIANMALDILSAVGTFRMRHMPEVPVRIRIGLHSGPCVAGVVGLTMPRYCLFGDTVATASRMESTGLPYRIHVNRSTVQILSALNEGFLTEVRGRTELKGKGAEETYWLVGRRGFNKPIPKPPDLQPGASNHGISLHEIPPDRRQKLEKARPGQFSGK
notes: as for B1
Regarding B2, the Km in data set [4] worked out at 490 ± 10 µM.
